Reference: patent US10442796B2, “2,3,5-substituted thiophene compound as protein kinase inhibitor” (KOREA INSTITUTE OF SCIENCE AND TECHNOLOGY, priority 2016, dated 2019)

Tests used:
MKNK2 = MKNK2 (Homo sapiens, UniProt Q9HBH9); assay: Kinase inhibitory activity, full kinase panel; type: biochemical; conditions: single concentration of 1 μM, read-out: %Inhibitory ability
Description: (§1) In order to measure inhibitory activity (% inhibitory ability) against a protein kinase with respect to the compound of the present invention, a biochemical assay was performed in a full kinase panel shown in the following Table 1. As an experimental compound, the (S)-5-((3-fluorophenyl)ethynyl)-N-(piperidin-3-yl)-3-ureidothiophene-2-carboxamide synthesized in Example 24 was used.

AURKB = AURKB (Homo sapiens, UniProt Q96GD4); assay: Kinase inhibitory activity, full kinase panel; type: biochemical; conditions: single concentration of 1 μM, read-out: %Inhibitory ability
Description: as §1

TRKB = TRKB (Homo sapiens, UniProt Q16620); assay: Kinase inhibitory activity, full kinase panel; type: biochemical; conditions: single concentration of 1 μM, read-out: %Inhibitory ability
Chain of TRKB (Q16620 32-822, species assumed): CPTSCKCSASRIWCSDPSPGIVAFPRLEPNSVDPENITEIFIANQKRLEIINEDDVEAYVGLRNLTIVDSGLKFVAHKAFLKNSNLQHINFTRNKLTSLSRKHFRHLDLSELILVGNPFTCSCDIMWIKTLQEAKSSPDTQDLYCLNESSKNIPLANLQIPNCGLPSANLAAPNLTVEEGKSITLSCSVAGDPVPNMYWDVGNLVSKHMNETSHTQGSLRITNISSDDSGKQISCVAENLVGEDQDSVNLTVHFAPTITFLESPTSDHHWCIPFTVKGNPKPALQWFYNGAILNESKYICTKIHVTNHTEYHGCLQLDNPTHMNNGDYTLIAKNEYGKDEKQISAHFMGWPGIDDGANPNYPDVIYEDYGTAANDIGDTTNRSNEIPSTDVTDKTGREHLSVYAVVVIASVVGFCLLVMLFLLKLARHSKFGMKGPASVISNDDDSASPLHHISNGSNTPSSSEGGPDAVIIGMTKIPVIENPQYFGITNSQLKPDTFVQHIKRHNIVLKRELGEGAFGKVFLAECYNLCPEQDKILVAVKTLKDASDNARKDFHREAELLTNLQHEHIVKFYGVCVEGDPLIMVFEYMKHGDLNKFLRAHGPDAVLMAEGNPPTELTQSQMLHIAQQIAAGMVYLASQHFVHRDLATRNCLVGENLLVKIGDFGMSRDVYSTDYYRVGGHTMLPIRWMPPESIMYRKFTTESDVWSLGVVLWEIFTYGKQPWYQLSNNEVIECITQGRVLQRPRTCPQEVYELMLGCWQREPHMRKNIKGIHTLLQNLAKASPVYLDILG
Description: as §1

EGFR(T790M) = EGFR(T790M) (Homo sapiens, UniProt P00533, T790M); assay: Kinase inhibitory activity, full kinase panel; type: biochemical; conditions: single concentration of 1 μM, read-out: %Inhibitory ability
Description: as §1

MEK3 = MEK3 (Homo sapiens, UniProt P46734); assay: Kinase inhibitory activity, full kinase panel; type: biochemical; conditions: single concentration of 1 μM, read-out: %Inhibitory ability
Description: as §1

FLT3 = FLT3 (Homo sapiens, UniProt P36888); assay: Kinase inhibitory activity, full kinase panel; type: biochemical; conditions: single concentration of 1 μM, read-out: %Inhibitory ability
Description: as §1

OSR1 = OSR1 (Homo sapiens, UniProt O95747); assay: Kinase inhibitory activity, full kinase panel; type: biochemical; conditions: single concentration of 1 μM, read-out: %Inhibitory ability
Chain of OSR1 (O95747 whole entry): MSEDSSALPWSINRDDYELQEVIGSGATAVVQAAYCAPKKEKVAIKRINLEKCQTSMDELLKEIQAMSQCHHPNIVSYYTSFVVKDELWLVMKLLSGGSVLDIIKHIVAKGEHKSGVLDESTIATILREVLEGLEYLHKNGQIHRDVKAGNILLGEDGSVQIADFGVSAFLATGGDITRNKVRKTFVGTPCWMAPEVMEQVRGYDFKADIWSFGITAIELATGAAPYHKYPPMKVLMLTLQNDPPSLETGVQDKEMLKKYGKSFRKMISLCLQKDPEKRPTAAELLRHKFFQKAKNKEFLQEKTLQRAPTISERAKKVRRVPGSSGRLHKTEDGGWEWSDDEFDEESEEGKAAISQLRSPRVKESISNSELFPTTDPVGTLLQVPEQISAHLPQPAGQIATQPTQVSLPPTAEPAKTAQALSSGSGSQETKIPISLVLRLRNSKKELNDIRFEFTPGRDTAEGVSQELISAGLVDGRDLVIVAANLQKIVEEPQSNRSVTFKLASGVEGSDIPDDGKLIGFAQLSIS
Description: as §1

SBK1 = SBK1 (Homo sapiens, UniProt Q52WX2); assay: Kinase inhibitory activity, full kinase panel; type: biochemical; conditions: single concentration of 1 μM, read-out: %Inhibitory ability
Chain of SBK1 (Q52WX2 whole entry): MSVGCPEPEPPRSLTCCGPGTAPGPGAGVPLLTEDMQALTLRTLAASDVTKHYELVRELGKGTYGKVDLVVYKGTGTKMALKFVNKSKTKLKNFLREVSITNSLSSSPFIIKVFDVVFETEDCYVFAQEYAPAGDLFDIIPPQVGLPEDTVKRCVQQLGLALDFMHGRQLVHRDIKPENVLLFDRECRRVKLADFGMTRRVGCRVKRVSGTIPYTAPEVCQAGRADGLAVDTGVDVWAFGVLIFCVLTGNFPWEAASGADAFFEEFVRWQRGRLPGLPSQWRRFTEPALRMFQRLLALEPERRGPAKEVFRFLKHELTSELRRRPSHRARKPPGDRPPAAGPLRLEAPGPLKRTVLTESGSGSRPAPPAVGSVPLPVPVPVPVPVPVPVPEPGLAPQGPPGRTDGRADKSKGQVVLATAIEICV
Description: as §1

CSF1R = CSF1R (Homo sapiens, UniProt P07333); assay: Kinase inhibitory activity, full kinase panel; type: biochemical; conditions: single concentration of 1 μM, read-out: %Inhibitory ability
Description: as §1

RET = RET (Homo sapiens, UniProt P07949); assay: Kinase inhibitory activity, full kinase panel; type: biochemical; conditions: single concentration of 1 μM, read-out: %Inhibitory ability
Description: as §1

IRAK4 = IRAK4 (Homo sapiens, UniProt Q9NWZ3); assay: Kinase inhibitory activity, full kinase panel; type: biochemical; conditions: single concentration of 1 μM, read-out: %Inhibitory ability
Chain of IRAK4 (Q9NWZ3 whole entry, species assumed): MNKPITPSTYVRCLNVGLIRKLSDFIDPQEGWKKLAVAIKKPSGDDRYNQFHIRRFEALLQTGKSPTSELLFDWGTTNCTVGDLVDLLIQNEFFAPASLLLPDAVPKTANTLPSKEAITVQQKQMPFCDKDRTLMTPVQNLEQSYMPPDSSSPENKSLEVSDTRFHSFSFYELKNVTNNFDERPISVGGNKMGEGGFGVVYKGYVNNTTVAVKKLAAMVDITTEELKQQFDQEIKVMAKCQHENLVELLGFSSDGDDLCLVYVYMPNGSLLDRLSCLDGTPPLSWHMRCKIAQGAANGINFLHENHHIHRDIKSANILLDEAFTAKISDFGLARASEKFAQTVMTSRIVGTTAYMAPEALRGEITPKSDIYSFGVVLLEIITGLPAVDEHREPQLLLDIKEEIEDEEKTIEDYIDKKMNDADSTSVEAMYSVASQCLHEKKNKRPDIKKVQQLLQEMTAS
Description: as §1

MAP4K2 = MAP4K2 (Homo sapiens, UniProt Q12851); assay: Kinase inhibitory activity, full kinase panel; type: biochemical; conditions: single concentration of 1 μM, read-out: %Inhibitory ability
Chain of MAP4K2 (Q12851 whole entry, species assumed): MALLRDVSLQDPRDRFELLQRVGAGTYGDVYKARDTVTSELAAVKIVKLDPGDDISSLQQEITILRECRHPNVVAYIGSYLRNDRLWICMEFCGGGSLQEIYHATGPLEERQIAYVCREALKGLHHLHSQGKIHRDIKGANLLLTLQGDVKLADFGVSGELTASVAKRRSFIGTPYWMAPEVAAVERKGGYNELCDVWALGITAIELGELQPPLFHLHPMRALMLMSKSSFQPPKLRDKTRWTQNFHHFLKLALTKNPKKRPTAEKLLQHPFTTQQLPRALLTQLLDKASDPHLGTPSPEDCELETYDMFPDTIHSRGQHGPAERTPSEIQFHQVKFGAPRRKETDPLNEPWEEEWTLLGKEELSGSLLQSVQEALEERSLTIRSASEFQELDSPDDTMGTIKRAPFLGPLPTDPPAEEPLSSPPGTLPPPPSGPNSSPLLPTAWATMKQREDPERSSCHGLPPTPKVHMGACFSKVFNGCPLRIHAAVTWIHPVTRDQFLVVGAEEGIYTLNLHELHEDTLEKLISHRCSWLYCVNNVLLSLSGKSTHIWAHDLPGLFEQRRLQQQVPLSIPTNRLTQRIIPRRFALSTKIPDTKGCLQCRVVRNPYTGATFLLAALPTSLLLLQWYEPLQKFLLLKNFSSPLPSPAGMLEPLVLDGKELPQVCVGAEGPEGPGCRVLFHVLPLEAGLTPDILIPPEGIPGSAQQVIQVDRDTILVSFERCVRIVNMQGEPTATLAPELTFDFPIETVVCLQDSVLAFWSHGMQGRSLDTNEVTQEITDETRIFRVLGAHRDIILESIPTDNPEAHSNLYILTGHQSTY
Description: as §1

DRAK1 = DRAK1 (Homo sapiens, UniProt Q9UEE5); assay: Kinase inhibitory activity, full kinase panel; type: biochemical; conditions: single concentration of 1 μM, read-out: %Inhibitory ability
Description: as §1

ANKK1 = ANKK1 (Homo sapiens, UniProt Q8NFD2); assay: Kinase inhibitory activity, full kinase panel; type: biochemical; conditions: single concentration of 1 μM, read-out: %Inhibitory ability
Description: as §1

SIK = SIK (Homo sapiens, UniProt P57059); assay: Kinase inhibitory activity, full kinase panel; type: biochemical; conditions: single concentration of 1 μM, read-out: %Inhibitory ability
Description: as §1

SRPK1 = SRPK1 (Homo sapiens, UniProt Q96SB4); assay: Kinase inhibitory activity, full kinase panel; type: biochemical; conditions: single concentration of 1 μM, read-out: %Inhibitory ability
Description: as §1

CAMK1 = CAMK1 (Homo sapiens, UniProt Q14012); assay: Kinase inhibitory activity, full kinase panel; type: biochemical; conditions: single concentration of 1 μM, read-out: %Inhibitory ability
Chain of CAMK1 (Q14012 whole entry, species assumed): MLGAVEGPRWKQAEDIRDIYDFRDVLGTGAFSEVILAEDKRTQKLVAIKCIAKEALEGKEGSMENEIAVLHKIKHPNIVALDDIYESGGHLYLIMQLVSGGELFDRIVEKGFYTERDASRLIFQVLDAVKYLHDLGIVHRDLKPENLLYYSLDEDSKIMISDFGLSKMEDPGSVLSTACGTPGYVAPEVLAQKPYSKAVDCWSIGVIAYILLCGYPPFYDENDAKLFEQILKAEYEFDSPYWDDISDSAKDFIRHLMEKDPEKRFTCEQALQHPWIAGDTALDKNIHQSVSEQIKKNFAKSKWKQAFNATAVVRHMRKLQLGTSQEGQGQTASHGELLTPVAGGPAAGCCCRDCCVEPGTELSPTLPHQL
Description: as §1

TNIK = TNIK (Homo sapiens, UniProt Q9UKE5); assay: Kinase inhibitory activity, full kinase panel; type: biochemical; conditions: single concentration of 1 μM, read-out: %Inhibitory ability
Chain of TNIK (Q9UKE5 whole entry, species assumed): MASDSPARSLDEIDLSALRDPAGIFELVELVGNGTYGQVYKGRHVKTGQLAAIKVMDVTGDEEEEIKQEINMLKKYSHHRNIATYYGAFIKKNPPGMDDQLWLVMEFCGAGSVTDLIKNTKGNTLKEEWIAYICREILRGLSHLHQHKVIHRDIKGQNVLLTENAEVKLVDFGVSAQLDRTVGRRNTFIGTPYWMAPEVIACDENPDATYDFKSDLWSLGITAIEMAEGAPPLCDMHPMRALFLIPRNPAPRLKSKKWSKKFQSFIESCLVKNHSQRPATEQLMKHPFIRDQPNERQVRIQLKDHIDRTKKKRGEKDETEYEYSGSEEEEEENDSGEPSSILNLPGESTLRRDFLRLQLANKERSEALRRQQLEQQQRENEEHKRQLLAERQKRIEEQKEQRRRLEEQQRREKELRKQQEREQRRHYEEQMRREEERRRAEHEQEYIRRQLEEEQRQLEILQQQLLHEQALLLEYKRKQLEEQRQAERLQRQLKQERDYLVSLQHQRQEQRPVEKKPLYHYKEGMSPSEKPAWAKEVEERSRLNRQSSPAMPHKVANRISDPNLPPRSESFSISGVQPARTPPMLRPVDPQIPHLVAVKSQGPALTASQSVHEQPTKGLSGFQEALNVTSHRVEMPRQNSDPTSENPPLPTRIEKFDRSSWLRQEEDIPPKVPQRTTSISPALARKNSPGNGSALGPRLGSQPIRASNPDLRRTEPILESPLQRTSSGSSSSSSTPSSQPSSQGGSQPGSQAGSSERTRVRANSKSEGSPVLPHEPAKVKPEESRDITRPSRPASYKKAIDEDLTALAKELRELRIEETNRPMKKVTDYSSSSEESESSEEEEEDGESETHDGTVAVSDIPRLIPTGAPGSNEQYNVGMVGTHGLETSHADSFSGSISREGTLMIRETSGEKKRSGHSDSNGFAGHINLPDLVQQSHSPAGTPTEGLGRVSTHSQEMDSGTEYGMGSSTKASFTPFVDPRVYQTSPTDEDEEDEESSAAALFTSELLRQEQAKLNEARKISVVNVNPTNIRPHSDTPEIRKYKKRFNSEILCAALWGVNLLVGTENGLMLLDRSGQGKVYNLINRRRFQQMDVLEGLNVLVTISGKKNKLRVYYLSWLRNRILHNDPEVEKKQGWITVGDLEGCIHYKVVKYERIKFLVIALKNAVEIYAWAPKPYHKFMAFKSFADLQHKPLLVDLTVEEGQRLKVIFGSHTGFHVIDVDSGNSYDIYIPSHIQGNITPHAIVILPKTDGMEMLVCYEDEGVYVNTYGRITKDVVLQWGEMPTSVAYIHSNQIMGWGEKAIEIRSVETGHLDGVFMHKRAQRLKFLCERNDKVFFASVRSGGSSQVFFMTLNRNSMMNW
Description: as §1

FYN = FYN (Homo sapiens, UniProt P06241); assay: Kinase inhibitory activity, full kinase panel; type: biochemical; conditions: single concentration of 1 μM, read-out: %Inhibitory ability
Description: as §1

MAP4K5 = MAP4K5 (Homo sapiens, UniProt Q9Y4K4); assay: Kinase inhibitory activity, full kinase panel; type: biochemical; conditions: single concentration of 1 μM, read-out: %Inhibitory ability
Description: as §1

DAPK2 = DAPK2 (Homo sapiens, UniProt Q9UIK4); assay: Kinase inhibitory activity, full kinase panel; type: biochemical; conditions: single concentration of 1 μM, read-out: %Inhibitory ability
Description: as §1

BLK = BLK (Homo sapiens, UniProt P51451); assay: Kinase inhibitory activity, full kinase panel; type: biochemical; conditions: single concentration of 1 μM, read-out: %Inhibitory ability
Description: as §1

ZAP70 = ZAP70 (Homo sapiens, UniProt P43403); assay: Kinase inhibitory activity, full kinase panel; type: biochemical; conditions: single concentration of 1 μM, read-out: %Inhibitory ability
Description: as §1

DRAK2 = DRAK2 (Homo sapiens, UniProt O94768); assay: Kinase inhibitory activity, full kinase panel; type: biochemical; conditions: single concentration of 1 μM, read-out: %Inhibitory ability
Description: as §1

PDGFRA = PDGFRA (Homo sapiens, UniProt P16234); assay: Kinase inhibitory activity, full kinase panel; type: biochemical; conditions: single concentration of 1 μM, read-out: %Inhibitory ability
Description: as §1

PLK4 = PLK4 (Homo sapiens, UniProt O00444); assay: Kinase inhibitory activity, full kinase panel; type: biochemical; conditions: single concentration of 1 μM, read-out: %Inhibitory ability
Description: as §1

EPHA3 = EPHA3 (Homo sapiens, UniProt P29320); assay: Kinase inhibitory activity, full kinase panel; type: biochemical; conditions: single concentration of 1 μM, read-out: %Inhibitory ability
Description: as §1

CHEK1 = CHEK1 (Homo sapiens, UniProt O14757); assay: Kinase inhibitory activity, full kinase panel; type: biochemical; conditions: single concentration of 1 μM, read-out: %Inhibitory ability
Description: as §1

MERTK = MERTK (Homo sapiens, UniProt Q12866); assay: Kinase inhibitory activity, full kinase panel; type: biochemical; conditions: single concentration of 1 μM, read-out: %Inhibitory ability
Description: as §1

[1] = tested on: FLT3-ITD-F691L-D835Y Ba/F3 cells; assay: In vivo bioluminescent efficacy study in mouse AML model; conditions: for T/C, reduction of luminescence: compared with AC220-treated and vehicle control mice
Description: Nude mice (5-6 weeks old)(Orient) were purchased and used after a week. Mice were anesthetized following IACUC approved animal protocol. FLT3-ITD F691L-D835Y, luc+ Ba/F3 cell (Established in-house) suspension (in 0.1 mL RPMI1640 (Welgene) of 1.0×10^6 cells) was injected into tail vein intravenously using a 29-G needle, and an tail mark was added to each animal for identification. After 6 days, the luminescence intensity was measured using IVIS (Perkin Elmer) to calculate the ROI intensity. Once ROI intensity reaches the study-desired minimum intensity (usually 2×106), mice were randomized into different treatment groups based on signal intensity.
Each compound was dissolved in NMP at 20× final concentration and diluted to 1× with the remaining vehicle components (vehicle: 5% NMP, 15% solutol (Sigma-aldrich), 30% PEG400 (Sigma-aldrich), 50% 0.05M citric acid (Sigma-aldrich)). Each compound solution was prepared freshly just before administration. Compounds were administered orally using a mouse sondae once a day, 0.1 mL per mouse. Mice were humanely euthanized if animals experience 20% body weight loss.
D-Luciferin (Promega) was dissolved in DPBS (Welgene) (without Ca2+ and Mg2+) at 15 mg/mL, and the stock solution was prepared after filtration using 0.22 μm syringe filters (BD). Luciferin solution (150 mg/kg in DPBS) was injected intraperitoneally into each mouse (200 μL/mouse). After 5 min, mice were anesthetized for 5 min using isoflurane (JW Pharma). Luminescence signal was read using IVIS200 (exposure time: auto, binning: 8, F/stop: 1). Signal intensity and body weights were measured every 3 days to monitor the ROI intensity and treatment-induced body weight loss. […] Data was analyzed using Living Image software (Caliper, PerkinElmer).
Statistical analysis of luminescence signal intensity, mouse body weight, and spleen/body weight ratio were evaluated using two-way ANOVA. Differences were considered statistically significant at p<0.005.

## Cc1ccc(C#Cc2cc(NC(N)=O)c(C(=O)N[C@H]3CCCNC3)s2)cc1 [Example 24, (S)—N-(piperidin-3-yl)-5-(p-tolylethynyl)-3-ureidothiophene-2-carboxamide]
MKNK2
  inhibition at 1 µM: 92.7%
AURKB
  inhibition at 1 µM: 66%
TRKB
  inhibition at 1 µM: 97.2%
EGFR(T790M)
  inhibition at 1 µM: 85%
MEK3
  inhibition at 1 µM: 83%
FLT3
  inhibition at 1 µM: 99.6%
OSR1
  inhibition at 1 µM: 68%
SBK1
  inhibition at 1 µM: 66%
CSF1R
  inhibition at 1 µM: 98.4%
RET
  inhibition at 1 µM: 98.7%
IRAK4
  inhibition at 1 µM: 99.8%
MAP4K2
  inhibition at 1 µM: 92.7%
DRAK1
  inhibition at 1 µM: 99.5%
ANKK1
  inhibition at 1 µM: 93.3%
SIK
  inhibition at 1 µM: 80%
SRPK1
  inhibition at 1 µM: 83%
CAMK1
  inhibition at 1 µM: 67%
TNIK
  inhibition at 1 µM: 96.3%
FYN
  inhibition at 1 µM: 91.5%
MAP4K5
  inhibition at 1 µM: 85%
DAPK2
  inhibition at 1 µM: 88%
BLK
  inhibition at 1 µM: 93.2%
ZAP70
  inhibition at 1 µM: 63%
DRAK2
  inhibition at 1 µM: 96%
PDGFRA
  inhibition at 1 µM: 95.8%
PLK4
  inhibition at 1 µM: 81%
EPHA3
  inhibition at 1 µM: 80%
CHEK1
  inhibition at 1 µM: 96.1%
MERTK
  inhibition at 1 µM: 96.1%

## NC(=O)Nc1cc(C#Cc2cccc(F)c2)sc1C(=O)N[C@H]1CCCNC1 [Example 22, (S)-5-((3-fluorophenyl)ethynyl)-N-(piperidin-3-yl)-3-ureidothiophene-2-carboxamide]
[1]; 15 mg/kg orally once per day
  T/C, reduction of luminescence: 84.2%
[1]; 30 mg/kg orally once per day
  T/C, reduction of luminescence: 88.7%
[1]; 2, 4, 7, 10 mg/kg, po, qd
  tumor inhibition at low dosages (luminescence): dose-dependent tumor inhibition in vivo from a dosage of 2 mg/kg
